# Tests used:
# [1] = system: MCF7 human breast carcinoma cells; test: Cell viability / proliferation assay (CELLTITER-GLO, dose matrix) in MCF7 cells; format: cell-based
# Method: FIG. 1 is a series of graphs showing the effect of the combination of COMPOUND A with ANTIBODY A on MCF7 cell proliferation under the presence of IGF-1 (100 ng/ml). Briefly, MCF7 cells were treated in 384-well format for 5 days with COMPOUND A and ANTIBODY A in the presence of 100 ng/ml of IGF1 in SD medium. […] Each data point represents averaged data from 3 wells+standard deviation, and the color spectrum also represents the level of the inhibition. A red rectangle highlights the region where the combination is more efficacious than the single agents the same dose.
# COMPOUND A (10 mM), stored in aliquots at −20° C. ANTIBODY A (0.2 mM in 1% BSA), stored in aliquots at 4° C. […]
# Cell viability was determined by measuring cellular ATP content using the CELLTITER-GLO (CTG) luminescent cell viability assay (Promega). […] An equal volume of the CTG reagents was added to each well at the end of the compound treatment and luminescence was recorded on an ENVISION plate reader (Perkin Elmer). Reduced and enhanched luminescent signal values (responses) were calculated relative to untreated (control) cells. […]
# The synergistic interaction (analyzed using Chalice software [CombinatoRx, Cambridge Mass.]) was calculated by comparing the response from a combination to the response of the agent acting alone, against the drug-with-itself dose-additive reference model. […]
# MCF7 xenograft = MCF7 xenograft in mice, tumor volume; format: in vivo
# Method: MCF-7 cells (purchased from American Type Culture Collection (ATCC)) were tested free of mycoplasma and viral contamination in the IMPACT VIII PCR assay panel (RADIL, MU Research Animal Diagnostic Laboratory, Columbia, Mo.). MCF-7 cells were cultured in EMEM medium (ATCC#30-2003) containing 10% heat-inactivated fetal bovine serum. Mice were implanted with 17b-estradiol pellets, 0.18 mg/pellet, 90-day release (Innovative research of America Catalog #NE-121), between the shoulder blades three days before the cell implant.
# Treatment started on day 21 and concluded by day 59. Tumor volume of each group was measured. The effect of COMPOUND A and ANTIBODY A, as monotherapy and combination, was assessed by comparing: • (a) the percent change between Day 1 and endpoint day in the mean tumor volume of the treated group (T) and the control group (C) (herein referred to as “T/C”), and • (b) the percent change between Day 1 and the endpoint day in the mean tumor volume of the treated group compared to its initial volume (herein referred to as “T/T0”).
compound,measurement,setting,value
"Cc1nc(NC(=O)N2CCC[C@H]2C(N)=O)sc1-c1ccnc(C(C)(C)C(F)(F)F)c1 [COMPOUND A, (S)-Pyrrolidine-1,2-dicarboxylic acid 2-amide 1-({4-methyl-5-[2-(2,2,2-trifluoro-1,1-dimethyl-ethyl)-pyridin-4-yl]-thiazol-2-yl}-amide)]",MCF7 growth inhibition in vitro (summary in words),"[1]; MCF7, Experiment 1 summary",concentration-dependent tumor growth inhibition
same,anti-proliferative activity (in words),"[1]; MCF7, single agent, either in the presence or absence of IGF1",concentration dependent anti-proliferative activity
same,tumor outcome in MCF7 xenograft (summary in words),"MCF7 xenograft; MCF7 xenograft in mice, Experiment 2 summary",tumor stasis
same,"T/C (percent change in mean tumor volume, treated vs control group)","MCF7 xenograft; MCF7 xenograft mice, COMPOUND A 30 mg/kg qd po, ANTIBODY A 12 mg/kg q2w ip, treatment day 21 to day 59",10%

# Reference: patent US8980259B2, “Combination therapy” (Novartis AG, priority 2012, dated 2015)
